# Laboratory results reported in USRE29842E, “Untriakontapeptide with opiate activity” (Hoffmann-La Roche Inc., priority 1977, dated 1978).
# No end group written: not given here.
# Experiments:
# [1] = system: opiate receptor, guinea pig brain membranes; assay: Opiate agonist activity by receptor binding assay (method of Simon et al.); conditions: for Percentage of inhibition of stereospecific binding: mean ± standard error from 4 determinations
# Protocol: The opiate agonist activity of natural beta-endophine was determined by the method of Simon et al., Proc. Nat. Acad. Sci. 70, 1947 (1973) using guinea pig brain membranes.
# rabbit fat cells = assay: Lipolytic activity in rabbit fat cells (procedure of Li et al.); assay type: cell-based; conditions: triplicate, mean ± standard error
# Source text: The lypolytic activity of natural beta-endorphin was compared to the activity of ovine beta-lipotropin hormone in rabbit fat cells using the procedure of Li et al., Arch. Biochem. Biophys. 169, 669 (1975).
# [2] = Hughes et al. Nature 258, 557 (1975); cited from earlier work
compound,measurement,setting,value
YGGFMTSEKSQTPLVTLFKNAIIKNAHKKGQ [beta-endorphin],Percentage of inhibition of stereospecific binding,[1]; dose 1.0 (10-^7 M),60 ± 0.7
same,Percentage of inhibition of stereospecific binding,[1]; dose 10.0 (10-^7 M),83 ± 0.2
same,"Potency, times that for normophine on a molar basis",[1]; molar basis,3.42 times
same,Lipolytic activity: glycerol production,rabbit fat cells; dose 1.1 (unit not given),0.66 ± 0.28 Micromole of glycerol producti
same,Lipolytic activity: glycerol production,rabbit fat cells; dose 10.0 (unit not given),1.42 ± 0.37 Micromole of glycerol producti
"Oc1ccc2c3c1O[C@H]1[C@@H](O)C=C[C@H]4[C@@H](C2)NCC[C@@]341 [Normophine, reference compound]",Percentage of inhibition of stereospecific binding,[1]; dose 0.7 (10-^7 M),28 ± 0.8
same,Percentage of inhibition of stereospecific binding,[1]; dose 7.0 (10-^7 M),70 ± 0.9
H-Tyr-Gly-Gly-Phe-Met-OH (H-YGGFM-OH) [pentapeptide isolated from pig brains by Hughes et al],Opiate agonist activity (in words),[2],exhibits opiate agonist activity
